Test results: US20160295854A1, “COMPOSITION AND METHOD FOR EX-VIVO IMMUNOMODULATION AND/OR PRESERVATION OF ORGANS, METHODS AND USE” (UNIAO BRASILEIRA DE EDUCACAO E ASSISTENCIA , MANTENEDORA DA …, priority 2014, published 2016)

Columns and labels:
MARCH-I = MARCH-I mRNA in DCs by real time PCR; type: cell-based, mice (Mus musculus)
Method: The supernatants were collected and used for analyzing cytokine. The cells were further treated with 20 ng/ml of Rapamycin (Cell Signaling), 1 μg/ml of Cyclosporine A (Roche) or 20 ng/ml of IL-10 recombinant murine (R&D System) for 24 h and the total RNA was removed.
The total RNA was isolated from the DCs treated using the kit RNAeasy (Qiagen), according to the manufacturer instructions. The total purified RNA concentration was determined with the kit Qubit® RNA Assay Kit (Invitrogen), read in the Qubit® Fluorometer (Invitrogen). 50 ng of the RNA had reverse transcriptase with 100 U of Sensiscript (Qiagen). DNA concentrations were determined with the kit Qubit® dsDNA HS Assay (Invitrogen), read in the Qubit® Fluorometer (Invitrogen). In a final volume of 10 μL, 8 ng of cDNA were applied using some assays Taqman® Gene Expression (Applied Biosystems): IL10 (Mm00439614_m1), March1 (Mm00613524_m1) and β-actin (4352933E), according to the manufacturer recommendations.
The quantitative real time PCR was performed in the instrument StepOne™ Real-Time PCR System (Applied Biosystems). The relative levels of mRNA were calculated according to the comparative method of Ct, described by […] & LIVAK (2008). The β-actin constituent gene was used as setter. Non-treated DCs served as reference for OVA or Hsp70-treated DCs.
After that, IL-10 mRNA levels were analyzed by Real-time PCR. The β-actin was used as a setter. The IL-10 concentration was measured in the cultures supernatant by flow cytometry. […] (C) As in A, however the MARCH-I mRNA levels were analyzed by Real-time PCR. […] DCs IL-10 KO were also treated with Recombinant IL-10. All treatments were performed for 24 h and MARCH-I mRNA levels were analyzed by Real-time PCR. […] After this period, grafts were sutured in the BALB/c animals' back and the acceptance was daily monitored. Graphs expressed on average ±SEM. *, p<0.05; **, p<0.01; ***, […]. n=3-5 mice per group. Representative results of 3 independent experiments.
After this period, the MARCH-I expression increase was analyzed by Real-time PCR.

IL-10 = IL-10 production by DCs (real time PCR and CBA); type: cell-based, mice (Mus musculus)
recipient DCs = assay: Indirect alloantigen presentation by recipient DCs (Y-Ae antibody); type: in vivo, mice (Mus musculus); settings: BALB/c grafts in B6 recipients; vs OVA
Method: Subsequently, the alloantigens presentation was analyzed by the recipient DCs using the antibody Y-Ae. This antibody recognizes a peptide (Eα52-68) expressed in BALB/c animals bound in the MHC II I-A^b molecule (expressed in the B6 animals).

[1] = test system: CD4+ and CD8+ T cells in recipient DLN; assay: Recipient responses in DLN (cell count, Ki67 proliferation, Tregs); type: in vivo, mice (Mus musculus)
Method: Cells of the donor mice (I-A^b+ or GFP+) were detected in the axillary lymph nodes of the recipients, 24 h or 96 h after the transplantation by flow cytometry. The transplanted mice were sacrificed, the axillary lymph nodes were removed and macerated in a nylon screen with a mean that had D Collagenase (Roche®). We achieved a cell suspension that had the cells in contact with Tripan blue and analyzed by flow cytometry.
For analyzing the recipients T cells, the cells were marked for CD4 (GK1.5), CD8a (53-6.7), Foxp3 (MF23), Ki67 (B56) achieved from BD Biosciences. The specific transcription factor marking of Tregs Foxp3 was performed using the kit Mouse Foxp3 Buffer Set (BD Biosciences), according to the manufacturer instructions. The levels of phosphorylated ERK and STAT3 were determined using antibodies for p-ERK1/2 and p-STAT3 (BD Biosciences) in BMDCs previously fixed and permeablized. The cells were subsequently analyzed in the flow cytometer FACSCanto II (BD Biosciences) with the BD FACSDiva (BD Biosciences) program. The data achieved were analyzed with the Flowjo program (version 7.6.5, Tree Star).
When analyzed the median responses in the Recipients' DLNs, it was noted, for inventors surprise, which animals that received grafts treated with OVA presented organs in a greater size when compared with animals that received grafts treated with Hsp70.
For analyzing this hypothesis, the proliferation of these cells was analyzed by marking with Ki67 in the transplanted animals DLN. Ki67 is a molecule having a role in the cellular cycle and is expressed by any organism cell that is proliferating. […] An increase in the number of regulating T cells (Tregs) may reduce the alloreactive T cells proliferation in the recipient DLN, delaying the rejection to grafts. […] These findings are in accordance with the observation that immature DCs administration in human leads to an inhibition of the CD8+ T cells effector functions.
FIG. 7. […]

[2] = test system: cutaneous allograft (B6 donor skin in BALB/c recipients); assay: Cutaneous allograft model, graft immersion followed by topic application; type: in vivo, mice (Mus musculus)
Excerpt: That is, animals that received grafts treated with Hsp70 receive the local application of a Hsp70 solution and the same for OVA.
After this, the grafts were sutured in BALB/c (I-A^d) animals' back. […] The animals were daily monitored. (A) Schematic representation of the treatment strategy used in the experiment. (B) Photographic record of the clinical progression of the acute rejection in groups Hsp70 and OVA. […] Data achieved from previous experiments.

MHC II = MHC II expression in LPS-activated BMDCs; type: cell-based, mice (Mus musculus); settings: BMDCs treated or not with LPS 24 h, then treated or not with Hsp70 for additional 24 h

Hsp70: recombinant Mycobacterium tuberculosis Hsp70 (DnaK) produced in Escherichia coli BL21, LPS removed
MARCH-I mRNA levels in DCs IL-10 KO (FIG. 11 D) (MARCH-I; DCs from IL-10 knockout animals, 24 h, compared with DCs WT): did not present an increase
increase in the MARCH-I mRNA (FIG. 11 C) (MARCH-I; DCs isolated from LNs, 24 h): 20 times
MARCH-I induction on DCs regarding the basal medium (FIG. 24) (MARCH-I; lymph node DCs, 24 hours, Hsp70 30 μg/mL, Rapamycin 20 ng/ml, Cyclosporine A 1 μg/ml, IL-10 20 ng/ml): only treatment able to induce MARCH-I
IL-10 production, mRNA and protein level (FIG. 11 A) (IL-10; DCs isolated from mice lymph nodes, 24 h): induce the IL-10 production
IL-10 mRNA and protein in DCs TLR2 KO (FIG. 12 A, B) (IL-10; TLR2 KO compared with DCs WT): significant reduction of the mRNA expression
antigens presentation levels by recipient DCs, Y-Ae (FIG. 6 D) (recipient DCs): no difference
total of cells of the Recipients' DLNs (FIG. 7 A) ([1]; days 1, 4, 7 and 10 after transplantation, vs OVA): lower absolute number of cells
CD4+ and CD8+ T cells proliferation (Ki67) in recipient DLN (FIG. 7 B, C) ([1]; graft treated by immersion): reduction marked
Tregs in the recipient DLN (FIG. 7 D) ([1]; graft treated by immersion): not detected a significant increase
graft survival, immersion plus topic application until day 7 (FIG. 18) ([2]; compared to animals treated with OVA): much bigger
Survival median ([2]; group '- 1 day'): 17.0 days
percentage of CD11c+ I-Ab^hi cells (FIG. 4) (MHC II): revert partially
